Test results reported in patent US11046689B2, “Selective estrogen receptor down-regulators” (AstraZeneca AB, priority 2017, dated 2021).

Target: Estrogen Receptor (ER) in MCF-7 cells (Homo sapiens (Human), UniProt P03372)
Assay: MCF-7 ER down-regulation assay (immuno-fluorescence)
Format: cell-based
Settings: stated where not >90%

Sequence of Estrogen Receptor (ER) in MCF-7 cells (P03372 whole entry): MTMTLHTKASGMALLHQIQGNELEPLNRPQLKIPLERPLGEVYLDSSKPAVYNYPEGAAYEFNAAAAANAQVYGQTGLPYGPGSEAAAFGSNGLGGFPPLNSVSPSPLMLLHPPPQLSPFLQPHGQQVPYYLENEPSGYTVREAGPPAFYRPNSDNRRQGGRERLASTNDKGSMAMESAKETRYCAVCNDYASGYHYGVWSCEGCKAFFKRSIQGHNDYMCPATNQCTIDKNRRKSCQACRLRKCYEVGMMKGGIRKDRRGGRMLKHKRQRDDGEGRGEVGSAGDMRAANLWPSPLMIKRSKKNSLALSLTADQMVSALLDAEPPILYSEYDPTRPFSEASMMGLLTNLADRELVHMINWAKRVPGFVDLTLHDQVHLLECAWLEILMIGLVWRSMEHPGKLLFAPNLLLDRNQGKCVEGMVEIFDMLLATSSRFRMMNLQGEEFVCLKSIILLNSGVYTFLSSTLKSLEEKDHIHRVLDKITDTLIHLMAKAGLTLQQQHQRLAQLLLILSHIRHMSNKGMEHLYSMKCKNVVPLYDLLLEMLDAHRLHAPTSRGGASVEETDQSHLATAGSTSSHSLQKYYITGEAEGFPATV

% downregulation (shown in brackets)	Compound
85%	Cc1c(OCCNCCCF)ccc(F)c1[C@@H]1c2[nH]c3ccccc3c2CC(C)(C)N1C[C@H](C)C(=O)O [Example 134, (S)-3-((R)-1 (6-fluoro-3-(2-((3-fluoro-propyl)amino)ethoxy)-2-methylphenyl)-3,3-dimethyl-1,3,4,9-tetrahydro-2H-pyrido[3,4-b]indol-2-yl)-2-methyl-propanoic acid]
86%	Cc1c(OCCN(C)CCCF)ccc(F)c1[C@@H]1c2[nH]c3ccccc3c2C[C@@H](C(F)(F)F)N1C[C@H](C)C(=O)O [Example 149, (S)-3-((1R,3S)-1-(6-fluoro-3-(2-((3-fluoropropyl)(methyl)amino)ethoxy)-2-methylphenyl)-3-(trifluoro-methyl)-1,3,4,9-tetrahydro-2H-pyrido[3,4-b]indol-2-yl)-2-methyl-propanoic acid]
90%	COc1ccc(OCCNCCCF)c(F)c1[C@@H]1c2[nH]c3ccccc3c2C[C@@H](C)N1CC1(F)CC1 [Example 83, 3-fluoro-N-(2-(2-fluoro-3-((1R,3R)-2-((1-fluorocyclo-propyl)methyl)-3-methyl-2,3,4,9-tetrahydro-1H-pyrido[3,4-b]indol-1-yl)-4-methoxy-phenoxy)ethyl)propan-1-amine]
68%	C[C@@H]1Cc2c([nH]c3ccccc23)[C@@H](c2c(F)ccc(OCCN(C)CCCF)c2C(F)F)N1C[C@H](C)C(=O)O [Example 148, (S)-3-((1R,3R)-1-(2-(difluoro-methyl)-6-fluoro-3-(2-((3-fluoro-propyl)(methyl)amino)ethoxy)phenyl)-3-methyl-1,3,4,9-tetrahydro-2H-pyrido[3,4-b]indol-2-yl)-2-methyl-propanoic acid]
79%	C[C@@H]1Cc2c([nH]c3ccccc23)[C@@H](c2c(F)ccc(OCCN(C)CCCF)c2F)N1CC1(F)COC1 [Example 154, N-(2-(2,4-difluoro-3-((1R,3R)-2-((3-fluorooxetan-3-yl)methyl)-3-methyl-2,3,4,9-tetrahydro-1H-pyrido[3,4-b]indol-1-yl)phenoxy)ethyl)-3-fluoro-N-methyl-propan-1-amine]
83%	COc1ccc(OCCNCCCF)c(F)c1[C@@H]1c2[nH]c3ccccc3c2C[C@@H](C)N1CC1(F)COC1 [Example 84, 3-fluoro-N-(2-(2-fluoro-3-((1R,3R)-2-((3-fluorooxetan-3-yl)methyl)-3-methyl-2,3,4,9-tetrahydro-1H-pyrido[3,4-b]indol-1-yl)-4-methoxy-phenoxy)ethyl)propan-1-amine]
88%	C[C@@H]1Cc2c([nH]c3ccccc23)[C@@H](c2c(F)ccc(OCCN(C)CCCF)c2F)N1C[C@H](C)C(=O)O [Example 144]

The remaining lines, values behind:

Compound	% downregulation (shown in brackets)
C[C@@H]1Cc2c([nH]c3ccccc23)[C@@H](c2cccc(OCCNCCCF)n2)N1CC(F)(F)F [Example 34, 3-fluoro-N-(2-((6-((1S,3R)-3-methyl-2-(2,2,2-trifluoroethyl)-2,3,4,9-tetrahydro-1H-pyrido[3,4-b]indol-1-yl)pyridin-2-yl)oxy)ethyl)propan-1-amine]	−(41%)
COCc1ccc(OCCNCCCF)cc1[C@@H]1c2[nH]c3ccccc3c2C[C@@H](C)N1CC(F)(F)F [Example 71, 3-fluoro-N-(2-(4-(methoxy-methyl)-3-((1R,3R)-3-methyl-2-(2,2,2-trifluoroethyl)-2,3,4,9-tetrahydro-1H-pyrido[3,4-b]indol-1-yl)phenoxy)ethyl)propan-1-amine]	90%
COc1ccc(OC[C@@H](C)NCCCF)cc1[C@@H]1c2[nH]c3ccccc3c2C[C@@H](C)N1CC(F)(F)CO [Example 50, 2,2-difluoro-3-((1R,3R)-1-(5-((R)-2-((3-fluoropropyl)amino)propoxy)-2-methoxyphenyl)-3-methyl-1,3,4,9-tetrahydro-2H-pyrido[3,4-b]indol-2-yl)propan-1-ol]	81%
COc1ccc(OCCNCCCF)cc1[C@@H]1c2[nH]c3ccccc3c2C[C@@H](C)N1C[C@H](C)C(=O)O [Example 53, (S)-3-((1R,3R)-1-(5-(2-((3-fluoropropyl)amino)ethoxy)-2-methoxy-phenyl)-3-methyl-1,3,4,9-tetrahydro-2H-pyrido[3,4-b]indol-2-yl)-2-methyl-propanoic acid]	−(40%)
COc1ccc(O[C@H](C)CNCCCF)cc1[C@@H]1c2[nH]c3ccccc3c2C[C@@H](C)N1CC(F)(F)CO [Example 47, 2,2-difluoro-3-((1R,3R)-1-(5-(((R)-1-((3-fluoropropyl)amino)propan-2-yl)oxy)-2-methoxyphenyl)-3-methyl-1,3,4,9-tetrahydro-2H-pyrido[3,4-b]indol-2-yl)propan-1-ol]	81%
